{
  "source": "the kinase profiling compilation of Christmann-Franck et al. (2016)",
  "experiment_in_all_cases": "KINOMEscan competition binding",
  "key": {"[1]": {"molecular_target": "AURKC (human) (UniProt Q9UQB9)", "sequence (Q9UQB9 whole entry, looked up)": "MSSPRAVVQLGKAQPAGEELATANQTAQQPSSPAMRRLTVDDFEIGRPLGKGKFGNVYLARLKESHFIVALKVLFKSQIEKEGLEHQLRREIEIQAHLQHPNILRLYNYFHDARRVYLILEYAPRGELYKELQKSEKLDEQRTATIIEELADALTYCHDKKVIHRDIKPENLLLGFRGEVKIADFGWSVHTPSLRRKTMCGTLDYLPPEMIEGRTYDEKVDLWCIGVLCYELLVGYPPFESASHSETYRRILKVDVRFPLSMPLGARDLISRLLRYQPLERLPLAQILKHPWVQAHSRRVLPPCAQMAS", "conditions": "compound 10.0 µM"}, "[2]": {"molecular_target": "BLK (human) (UniProt P51451)", "conditions": "compound 10.0 µM"}, "[3]": {"molecular_target": "BMPR2 (human) (UniProt Q13873)", "conditions": "compound 10.0 µM"}, "[4]": {"molecular_target": "CAMKK2 (human) (UniProt Q96RR4)", "conditions": "compound 10.0 µM"}, "[5]": {"molecular_target": "CDK16 (human) (UniProt Q00536)", "sequence (Q00536 whole entry, looked up)": "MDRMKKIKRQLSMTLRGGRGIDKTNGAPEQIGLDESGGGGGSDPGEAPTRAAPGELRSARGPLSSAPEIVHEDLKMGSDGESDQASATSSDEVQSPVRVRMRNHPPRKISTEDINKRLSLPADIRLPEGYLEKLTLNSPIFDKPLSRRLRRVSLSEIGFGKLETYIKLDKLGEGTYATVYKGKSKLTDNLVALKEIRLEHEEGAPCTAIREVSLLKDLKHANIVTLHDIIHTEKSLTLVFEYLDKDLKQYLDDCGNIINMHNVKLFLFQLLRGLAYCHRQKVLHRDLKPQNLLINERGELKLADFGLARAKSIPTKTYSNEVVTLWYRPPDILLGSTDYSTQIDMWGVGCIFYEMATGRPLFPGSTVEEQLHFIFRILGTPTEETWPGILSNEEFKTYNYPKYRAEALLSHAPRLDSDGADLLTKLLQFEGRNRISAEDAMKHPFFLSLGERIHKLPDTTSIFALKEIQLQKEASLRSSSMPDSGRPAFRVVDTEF", "conditions": "compound 10.0 µM"}, "[6]": {"molecular_target": "CSK (human) (UniProt P41240)", "conditions": "compound 10.0 µM"}, "[7]": {"molecular_target": "CSNK2A2 (human) (UniProt P19784)", "sequence (P19784 whole entry, looked up)": "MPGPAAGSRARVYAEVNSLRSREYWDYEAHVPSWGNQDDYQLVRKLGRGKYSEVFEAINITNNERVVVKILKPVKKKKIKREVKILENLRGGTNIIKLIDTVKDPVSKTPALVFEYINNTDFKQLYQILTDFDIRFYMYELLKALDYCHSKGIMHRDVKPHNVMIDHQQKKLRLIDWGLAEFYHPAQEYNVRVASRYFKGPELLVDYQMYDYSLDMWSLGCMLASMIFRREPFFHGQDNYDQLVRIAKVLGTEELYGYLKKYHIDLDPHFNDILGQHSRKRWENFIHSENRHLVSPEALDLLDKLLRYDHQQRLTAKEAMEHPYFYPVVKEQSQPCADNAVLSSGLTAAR", "conditions": "compound 10.0 µM"}, "[8]": {"molecular_target": "EGFR (human) (UniProt P00533)", "conditions": "compound 10.0 µM"}, "[9]": {"system": "EGFR (human), P00533 [747-751 del / S ins]", "sequence (P00533 whole entry, looked up, stated change not applied)": "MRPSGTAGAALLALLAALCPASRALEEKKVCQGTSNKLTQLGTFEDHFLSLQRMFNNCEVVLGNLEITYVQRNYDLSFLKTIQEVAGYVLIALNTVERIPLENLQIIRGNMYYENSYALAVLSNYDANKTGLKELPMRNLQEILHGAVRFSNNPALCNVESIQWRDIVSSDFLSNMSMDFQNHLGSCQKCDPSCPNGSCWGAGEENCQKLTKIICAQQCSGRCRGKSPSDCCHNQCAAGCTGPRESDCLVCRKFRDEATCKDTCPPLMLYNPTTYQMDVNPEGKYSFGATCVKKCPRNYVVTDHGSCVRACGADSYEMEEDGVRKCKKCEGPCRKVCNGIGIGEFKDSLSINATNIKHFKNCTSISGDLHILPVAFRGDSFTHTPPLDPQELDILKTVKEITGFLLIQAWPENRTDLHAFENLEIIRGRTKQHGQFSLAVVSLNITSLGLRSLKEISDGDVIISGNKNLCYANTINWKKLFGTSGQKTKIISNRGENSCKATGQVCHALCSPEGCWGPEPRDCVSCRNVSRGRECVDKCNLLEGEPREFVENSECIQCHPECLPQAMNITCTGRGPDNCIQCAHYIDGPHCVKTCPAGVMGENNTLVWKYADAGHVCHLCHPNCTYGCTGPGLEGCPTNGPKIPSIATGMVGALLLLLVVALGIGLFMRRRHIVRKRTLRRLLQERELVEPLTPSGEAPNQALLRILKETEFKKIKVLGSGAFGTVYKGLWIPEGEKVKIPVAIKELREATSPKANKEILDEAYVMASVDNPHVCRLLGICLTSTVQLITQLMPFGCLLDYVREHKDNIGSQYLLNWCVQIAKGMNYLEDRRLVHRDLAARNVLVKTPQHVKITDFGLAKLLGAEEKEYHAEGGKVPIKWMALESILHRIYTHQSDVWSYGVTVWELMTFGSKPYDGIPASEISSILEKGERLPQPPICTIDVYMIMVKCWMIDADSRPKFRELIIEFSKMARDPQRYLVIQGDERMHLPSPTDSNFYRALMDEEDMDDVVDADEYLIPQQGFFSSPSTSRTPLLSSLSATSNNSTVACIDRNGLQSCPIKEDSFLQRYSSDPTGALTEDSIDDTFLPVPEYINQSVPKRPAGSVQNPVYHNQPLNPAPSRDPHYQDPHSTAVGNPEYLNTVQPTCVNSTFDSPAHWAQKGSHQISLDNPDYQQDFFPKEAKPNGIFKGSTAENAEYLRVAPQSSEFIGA", "conditions": "compound 10.0 µM"}, "[10]": {"molecular_target": "EPHA6 (human) (UniProt Q9UF33)", "conditions": "compound 10.0 µM"}, "[11]": {"system": "FGFR3 (human), P22607 [G697C]", "conditions": "compound 10.0 µM"}, "[12]": {"molecular_target": "GRK4 (human) (UniProt P32298)", "conditions": "compound 10.0 µM"}, "[13]": {"molecular_target": "JAK1 JH1 catalytic (human) (UniProt P23458)", "conditions": "compound 10.0 µM"}, "[14]": {"molecular_target": "KDR (human) (UniProt P35968)", "conditions": "compound 10.0 µM"}, "[15]": {"molecular_target": "MAP2K1 (human) (UniProt Q02750)", "conditions": "compound 10.0 µM"}, "[16]": {"molecular_target": "MAP3K13 (human) (UniProt O43283)", "conditions": "compound 10.0 µM"}, "[17]": {"molecular_target": "MAPK10 (human) (UniProt P53779)", "conditions": "compound 10.0 µM"}, "[18]": {"molecular_target": "MAPK13 (human) (UniProt O15264)", "conditions": "compound 10.0 µM"}, "[19]": {"molecular_target": "MAPK7 (human) (UniProt Q13164)", "conditions": "compound 10.0 µM"}, "[20]": {"molecular_target": "MELK (human) (UniProt Q14680)", "conditions": "compound 10.0 µM"}, "[21]": {"molecular_target": "MLTK (human) (UniProt Q9NYL2)", "sequence (Q9NYL2 whole entry, looked up)": "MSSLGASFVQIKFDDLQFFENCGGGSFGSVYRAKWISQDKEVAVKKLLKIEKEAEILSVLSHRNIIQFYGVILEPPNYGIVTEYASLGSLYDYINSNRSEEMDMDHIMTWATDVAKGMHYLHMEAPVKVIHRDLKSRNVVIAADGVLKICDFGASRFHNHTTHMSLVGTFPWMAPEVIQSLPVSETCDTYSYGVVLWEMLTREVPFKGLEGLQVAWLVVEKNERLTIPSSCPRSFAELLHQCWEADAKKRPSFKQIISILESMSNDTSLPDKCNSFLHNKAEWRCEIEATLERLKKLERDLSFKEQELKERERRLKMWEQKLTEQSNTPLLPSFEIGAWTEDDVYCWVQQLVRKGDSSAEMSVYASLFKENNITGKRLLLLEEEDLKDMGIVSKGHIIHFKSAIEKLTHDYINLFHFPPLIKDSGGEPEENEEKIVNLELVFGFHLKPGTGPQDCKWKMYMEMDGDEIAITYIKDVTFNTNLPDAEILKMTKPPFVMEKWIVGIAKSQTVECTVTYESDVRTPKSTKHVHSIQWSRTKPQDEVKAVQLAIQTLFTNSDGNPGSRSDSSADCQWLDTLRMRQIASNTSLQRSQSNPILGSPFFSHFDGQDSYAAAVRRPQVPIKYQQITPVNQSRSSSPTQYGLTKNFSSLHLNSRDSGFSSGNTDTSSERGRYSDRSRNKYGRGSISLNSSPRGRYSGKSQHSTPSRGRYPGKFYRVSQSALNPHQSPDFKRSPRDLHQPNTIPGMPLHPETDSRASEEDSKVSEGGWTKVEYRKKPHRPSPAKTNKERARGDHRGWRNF", "conditions": "compound 10.0 µM"}, "[22]": {"molecular_target": "NEK7 (human) (UniProt Q8TDX7)", "sequence (Q8TDX7 whole entry, looked up)": "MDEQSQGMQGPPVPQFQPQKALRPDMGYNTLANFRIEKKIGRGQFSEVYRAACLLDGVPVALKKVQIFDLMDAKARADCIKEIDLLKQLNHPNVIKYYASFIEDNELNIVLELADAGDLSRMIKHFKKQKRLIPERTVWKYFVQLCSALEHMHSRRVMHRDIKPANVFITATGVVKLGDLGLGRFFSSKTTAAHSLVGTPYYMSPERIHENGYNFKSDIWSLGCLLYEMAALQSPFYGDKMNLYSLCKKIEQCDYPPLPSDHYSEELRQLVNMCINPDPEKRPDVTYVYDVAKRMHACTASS", "conditions": "compound 10.0 µM"}, "[23]": {"molecular_target": "NUAK2 (human) (UniProt Q9H093)", "conditions": "compound 10.0 µM"}, "[24]": {"molecular_target": "PDGFRA (human) (UniProt P16234)", "conditions": "compound 10.0 µM"}, "[25]": {"system": "PIK3CA (human), P42336 [E545A]", "conditions": "compound 10.0 µM"}, "[26]": {"system": "PIK3CA (human), P42336 [M1043I]", "conditions": "compound 10.0 µM"}, "[27]": {"molecular_target": "PIP4K2B (human) (UniProt P78356)", "sequence (P78356 whole entry, looked up)": "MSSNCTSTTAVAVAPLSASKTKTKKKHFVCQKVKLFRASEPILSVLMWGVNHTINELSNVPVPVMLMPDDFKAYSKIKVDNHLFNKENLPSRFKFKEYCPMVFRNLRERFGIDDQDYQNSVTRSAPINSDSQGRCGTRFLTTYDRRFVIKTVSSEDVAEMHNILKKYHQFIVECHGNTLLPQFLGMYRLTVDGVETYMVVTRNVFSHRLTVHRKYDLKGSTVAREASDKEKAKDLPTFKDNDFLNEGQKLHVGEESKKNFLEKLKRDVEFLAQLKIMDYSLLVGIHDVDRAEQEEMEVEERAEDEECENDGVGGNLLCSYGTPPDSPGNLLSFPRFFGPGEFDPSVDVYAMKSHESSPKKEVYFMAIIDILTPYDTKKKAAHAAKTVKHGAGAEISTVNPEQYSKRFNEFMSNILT", "conditions": "compound 10.0 µM"}, "[28]": {"molecular_target": "PIP4K2C (human) (UniProt Q8TBX8)", "conditions": "compound 10.0 µM"}, "[29]": {"molecular_target": "PLK1 (human) (UniProt P53350)", "sequence (P53350 whole entry, looked up)": "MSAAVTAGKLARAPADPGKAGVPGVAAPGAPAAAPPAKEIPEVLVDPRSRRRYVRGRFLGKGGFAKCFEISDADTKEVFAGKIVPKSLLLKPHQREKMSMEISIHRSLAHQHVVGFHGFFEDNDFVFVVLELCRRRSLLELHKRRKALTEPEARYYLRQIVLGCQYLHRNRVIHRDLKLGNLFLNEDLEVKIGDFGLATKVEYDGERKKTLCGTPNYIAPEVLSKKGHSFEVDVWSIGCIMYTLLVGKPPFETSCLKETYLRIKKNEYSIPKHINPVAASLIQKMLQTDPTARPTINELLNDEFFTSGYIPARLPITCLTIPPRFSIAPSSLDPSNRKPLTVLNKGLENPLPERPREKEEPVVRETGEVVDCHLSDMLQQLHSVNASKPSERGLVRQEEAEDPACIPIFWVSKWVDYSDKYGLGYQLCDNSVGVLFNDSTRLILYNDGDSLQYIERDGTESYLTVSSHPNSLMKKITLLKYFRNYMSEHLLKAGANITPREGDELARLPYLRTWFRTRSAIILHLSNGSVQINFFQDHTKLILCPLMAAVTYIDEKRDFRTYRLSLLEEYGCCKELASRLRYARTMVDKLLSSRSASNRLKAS"}, "[30]": {"molecular_target": "PLK2 (human) (UniProt Q9NYY3)", "conditions": "compound 10.0 µM"}, "[31]": {"molecular_target": "PRKCI (human) (UniProt P41743)", "conditions": "compound 10.0 µM"}, "[32]": {"molecular_target": "PTK6 (human) (UniProt Q13882)", "conditions": "compound 10.0 µM"}, "[33]": {"molecular_target": "RET (human) (UniProt P07949)", "conditions": "compound 10.0 µM"}, "[34]": {"molecular_target": "RPS6KA5 KD2 (human) (UniProt O75582)", "conditions": "compound 10.0 µM"}, "[35]": {"molecular_target": "STK25 (human) (UniProt O00506)", "conditions": "compound 10.0 µM"}, "[36]": {"molecular_target": "STK33 (human) (UniProt Q9BYT3)", "conditions": "compound 10.0 µM"}, "[37]": {"molecular_target": "STK35 (human) (UniProt Q8TDR2)", "conditions": "compound 10.0 µM"}, "[38]": {"molecular_target": "STK36 (human) (UniProt Q9NRP7)", "conditions": "compound 10.0 µM"}, "[39]": {"molecular_target": "STK38L (human) (UniProt Q9Y2H1)", "sequence (Q9Y2H1 whole entry, looked up)": "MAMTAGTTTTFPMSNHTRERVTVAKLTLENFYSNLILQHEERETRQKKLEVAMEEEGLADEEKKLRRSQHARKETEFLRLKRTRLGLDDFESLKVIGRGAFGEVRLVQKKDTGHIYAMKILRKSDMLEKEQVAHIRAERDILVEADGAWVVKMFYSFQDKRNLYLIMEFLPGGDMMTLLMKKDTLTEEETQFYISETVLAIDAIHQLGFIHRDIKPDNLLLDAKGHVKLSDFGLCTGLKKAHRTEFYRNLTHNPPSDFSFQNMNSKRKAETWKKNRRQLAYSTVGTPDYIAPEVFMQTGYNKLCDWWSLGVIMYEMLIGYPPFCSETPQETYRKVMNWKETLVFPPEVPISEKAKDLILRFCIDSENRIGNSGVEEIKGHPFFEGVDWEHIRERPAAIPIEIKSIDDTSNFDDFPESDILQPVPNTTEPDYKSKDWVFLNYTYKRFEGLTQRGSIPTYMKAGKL", "conditions": "compound 10.0 µM"}, "[40]": {"molecular_target": "TLK2 (human) (UniProt Q86UE8)", "conditions": "compound 10.0 µM"}, "[41]": {"molecular_target": "TTK (human) (UniProt P33981)", "conditions": "compound 10.0 µM"}},
  "data": [
    {"smiles": "COc1cc(C(=O)N2CCC(N3CCN(C)CC3)CC2)ccc1Nc1ncc2c(n1)N(C)c1ccccc1C(=O)N2C", "values": [
      {"measurement": "kinase still bound, per cent of control", "setting": "[1]", "value": 50, "unit": "%"},
      {"measurement": "kinase still bound, per cent of control", "setting": "[2]", "value": 97, "unit": "%"},
      {"measurement": "kinase still bound, per cent of control", "setting": "[3]", "value": 100, "unit": "%"},
      {"measurement": "kinase still bound, per cent of control", "setting": "[4]", "value": 31, "unit": "%"},
      {"measurement": "residual activity", "setting": "[5]", "value": 96, "unit": "%"},
      {"measurement": "kinase still bound, per cent of control", "setting": "[6]", "value": 90, "unit": "%"},
      {"measurement": "kinase still bound, per cent of control", "setting": "[7]", "value": 93, "unit": "%"},
      {"measurement": "kinase still bound, per cent of control", "setting": "[8]", "value": 84, "unit": "%"},
      {"measurement": "kinase still bound, per cent of control", "setting": "[9]", "value": 100, "unit": "%"},
      {"measurement": "kinase still bound, per cent of control", "setting": "[10]", "value": 89, "unit": "%"},
      {"measurement": "kinase still bound, per cent of control", "setting": "[11]", "value": 85, "unit": "%"},
      {"measurement": "kinase still bound, per cent of control", "setting": "[12]", "value": 86, "unit": "%"},
      {"measurement": "kinase still bound, per cent of control", "setting": "[13]", "value": 100, "unit": "%"},
      {"measurement": "kinase still bound, per cent of control", "setting": "[14]", "value": 84, "unit": "%"},
      {"measurement": "kinase still bound, per cent of control", "setting": "[15]", "value": 100, "unit": "%"},
      {"measurement": "kinase still bound, per cent of control", "setting": "[16]", "value": 100, "unit": "%"},
      {"measurement": "kinase still bound, per cent of control", "setting": "[17]", "value": 77, "unit": "%"},
      {"measurement": "kinase still bound, per cent of control", "setting": "[18]", "value": 72, "unit": "%"},
      {"measurement": "kinase still bound, per cent of control", "setting": "[19]", "value": 0.05, "unit": "%"},
      {"measurement": "kinase still bound, per cent of control", "setting": "[20]", "value": 100, "unit": "%"},
      {"measurement": "kinase still bound, per cent of control", "setting": "[21]", "value": 99, "unit": "%"},
      {"measurement": "kinase still bound, per cent of control", "setting": "[22]", "value": 100, "unit": "%"},
      {"measurement": "kinase still bound, per cent of control", "setting": "[23]", "value": 47, "unit": "%"},
      {"measurement": "kinase still bound, per cent of control", "setting": "[24]", "value": 100, "unit": "%"},
      {"measurement": "kinase still bound, per cent of control", "setting": "[25]", "value": 98, "unit": "%"},
      {"measurement": "kinase still bound, per cent of control", "setting": "[26]", "value": 65, "unit": "%"},
      {"measurement": "kinase still bound, per cent of control", "setting": "[27]", "value": 100, "unit": "%"},
      {"measurement": "kinase still bound, per cent of control", "setting": "[28]", "value": 40, "unit": "%"},
      {"measurement": "Kd", "setting": "[29]", "value": 75, "unit": "nM"},
      {"measurement": "kinase still bound, per cent of control", "setting": "[29]; compound 10.0 µM", "value": 0.7, "unit": "%"},
      {"measurement": "kinase still bound, per cent of control", "setting": "[30]", "value": 100, "unit": "%"},
      {"measurement": "kinase still bound, per cent of control", "setting": "[31]", "value": 100, "unit": "%"},
      {"measurement": "kinase still bound, per cent of control", "setting": "[32]", "value": 58, "unit": "%"},
      {"measurement": "kinase still bound, per cent of control", "setting": "[33]", "value": 100, "unit": "%"},
      {"measurement": "kinase still bound, per cent of control", "setting": "[34]", "value": 92, "unit": "%"},
      {"measurement": "kinase still bound, per cent of control", "setting": "[35]", "value": 68, "unit": "%"},
      {"measurement": "kinase still bound, per cent of control", "setting": "[36]", "value": 10, "unit": "%"},
      {"measurement": "kinase still bound, per cent of control", "setting": "[37]", "value": 100, "unit": "%"},
      {"measurement": "kinase still bound, per cent of control", "setting": "[38]", "value": 97, "unit": "%"},
      {"measurement": "kinase still bound, per cent of control", "setting": "[39]", "value": 100, "unit": "%"},
      {"measurement": "kinase still bound, per cent of control", "setting": "[40]", "value": 99, "unit": "%"},
      {"measurement": "kinase still bound, per cent of control", "setting": "[41]", "value": 28, "unit": "%"}
    ]}
  ]
}
